According to patent publication US20240109917A1 (ACTELION PHARMACEUTICALS LTD, priority 2020, published 2024):

What follows are molecules tested against His6-TEV-PDGFRβ (557-1016) (Homo sapiens (Human), UniProt P09619) (assay: PDGFRβ HTRF Assay). Conditions: read-out: PDGFR HTRF IC50.
Assay type: biochemical
Method: Instrumentation: a. Compound liquid handling: LabCyte Echo; b. Reagent liquid handling: Thermo Scientific Multidrop Combi; c. BMG PHERAStar multilabel plate reader.
Protein Reagent: His6-TEV-PDGFRβ Protein Prep prepared at Accelagen.
II. Methods and Procedures
Assay buffer stock solution, contains 50 mM Hepes, 10 mM MgCl2, 1 mM EGTA, and 0.01% Brij-35, 0.01% ovalbumin, 2 mM DTT at pH 7.5, in molecular biology grade water. Store at room temperature.
DTT, 2 M in molecular biology grade water, store at −20° C. in aliquots.
Ovalbumin, 10% or 100 mg/mL, prepare fresh on experimental day.
PDGFRβ, 116 μM (PDGFRb_08 Prep 02), produced at Accelagen. Store at −80° C. in aliquots.
TK-biotin peptide, […] in molecular biology grade water, store at −20° C. in aliquots.
ATP, 100 mM in molecular biology grade water, store at −20° C. in aliquots.
HTRF KinEASE-TK kit: Allow the contents of the Cisbio kit to warm up to room temperature before use. This kit contains HTRF detection buffer, TK-Antibody labeled with Eu^3+-cryptate, TK-substrate biotin and Streptavidin-XL665.
TK Substrate-Biotin, reconstitute 500 μg lyopholized with 574 μL molecular biology grade water to prepare a 500 μM stock; After use, aliquot the rest and store at −20° C.
TK Antibody-Cryptate, reconstitute lyophilized with 1 mL of molecular biology grade water (100× solution) then add 99 mL detection buffer to prepare a ready to use TK-antibody-cryptate solution; the concentration of the TK-antibody-cryptate reagent is not known. After use, aliquot the rest and store at −20° C.
Streptavidin-XL665, reconstitute 3 mg lyophilized with 3 mL molecular biology grade water to prepare a 1 mg/mL or 16.67 μM stock; MW=60 kDa; After use, aliquot the rest and store at −20° C.
Freshly Prepared Solutions:
Assay buffer. Dilute 5× Kinase buffer 5-fold with molecular biology grade water and add DTT to 2 mM and ovalbumin to 0.1 mg/mL (or 0.01%).
2× protein solution. Make a working solution of […] PDGFRβ in assay buffer. Keep on ice until use to maintain enzyme stability.
2× substrate solution. Make a working solution of 1.6 mM ATP and 1 μM TK-substrate biotin peptide in assay buffer.
3× quench/detection solution. Make a working solution of 0.1875 μM SA-XL665 and the TK-antibody cryptate diluted by 12 of total quench/detection volume in assay buffer.
Keep final streptavidin/biotin ratio at 1 to 8.
Example of 3× quench/detection solution preparation: 8 mL total volume.
TK antibody-cryptate in detection buffer—4000 μL
The kinase reaction is stopped by the addition of the detection reagents which contain EDTA (detection step).
Assay in white ProxiPlate 384-well
Step 1. Dispensing inhibitors/DMSO and low control: Using the ECHO 555 acoustic dispenser, spot desired compound serial dilutions in DMSO, NEAT DMSO to represent the uninhibited enzyme control, and 10 μM final [imatinib] to the represent the 100% inhibited enzyme control
Step 2. PDGFRβ E+I pre-incubation: Add 2 μL 2× protein solution to columns 1-24 using the Multidrop Combi. Centrifuge at 1000 rpm for 1 min. Incubate 30 min at RT
Step 2. Enzymatic reaction: Add 2 μL substrate solution to columns 1-24 to initiate the reaction using the Multidrop Combi; cover/seal the assay plate to reduce evaporation. Centrifuge at 1000 rpm for 1 min. Incubate at room temperature for 3 hours.
Step 3. Quench/Detection: Add 2 μl 3× quench/detection solution to columns 1-24 using the Multidrop Combi; cover/seal the plate. Centrifuge 1 min 1000 rpm. Incubate at RT for 60 min. Read the plate in PHERAstar (or similar instrument) on HTRF setting at excitation 337 nm—dual emission—665/620 nm ratio.
III. Calculations and Formulas
HTRF ratio values calculated by the instrument (Ratio is acceptor counts/donor counts*10,000) is exported from the plate reader and used in data analysis. […] Assay statistics can include Robust Z′ and Signal to Background.
% Inhibition Calculation: Percent inhibition will be calculated for sample wells based on the equation: […]

Sequence of His6-TEV-PDGFRβ (557-1016) (P09619 557-1016): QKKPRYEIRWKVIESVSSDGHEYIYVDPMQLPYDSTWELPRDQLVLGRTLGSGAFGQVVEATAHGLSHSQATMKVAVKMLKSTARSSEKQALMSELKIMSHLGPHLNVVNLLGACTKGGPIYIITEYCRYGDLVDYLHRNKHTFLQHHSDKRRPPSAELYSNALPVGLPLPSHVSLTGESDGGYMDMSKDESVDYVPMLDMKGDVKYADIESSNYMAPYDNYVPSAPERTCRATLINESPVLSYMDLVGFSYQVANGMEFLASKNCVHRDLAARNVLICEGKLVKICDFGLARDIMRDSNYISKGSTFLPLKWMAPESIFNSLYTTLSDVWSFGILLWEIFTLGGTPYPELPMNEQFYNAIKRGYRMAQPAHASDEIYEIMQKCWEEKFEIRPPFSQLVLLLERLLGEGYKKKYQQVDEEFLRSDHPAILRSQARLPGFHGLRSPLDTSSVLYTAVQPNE

| Compound | IC50 [nM] |
| --- | --- |
| Cc1ncc(C(=O)NCCN2C3CCCC2CCC3)cc1NC(=O)c1cnn2cc(-c3cnn(C)c3)sc12 [Example 4, N-(5-((2-(9-azabicyclo[3.3.1]nonan-9-yl)ethyl)carbamoyl)-2-methylpyridin-3-yl)-2-(1-methyl-1H-pyrazol-4-yl)pyrazolo[5,1-b]thiazole-7-carboxamide] | 0.3 |
| Cc1ncc(C(=O)NCCN2CC3CC(C3)C2)cc1NC(=O)c1cnn2cc(-c3cnn(C)c3)sc12 [Example 5, N-(5-((2-(3-azabicyclo[3.1.1]heptan-3-yl)ethyl)carbamoyl)-2-methylpyridin-3-yl)-2-(1-methyl-1H-pyrazol-4-yl)pyrazolo[5,1-b]thiazole-7-carboxamide] | 0.4 |
| Cc1ncc(C(=O)NCCN2CCCC2(C)C)cc1NC(=O)c1cnn2cc(-c3cnn(C4CC4)c3)sc12 [Example 6, 2-(1-cyclopropyl-1H-pyrazol-4-yl)-N-(5-((2-(2,2-dimethylpyrrolidin-1-yl)ethyl)carbamoyl)-2-methylpyridin-3-yl)pyrazolo[5,1-b]thiazole-7-carboxamide] | 0.2 |
| Cc1ncc(C(=O)NCCN2CCCC2(C)C)cc1NC(=O)c1cnn2cc(-c3ccncc3)sc12 [Example 7, N-(5-((2-(2,2-dimethylpyrrolidin-1-yl)ethyl)carbamoyl)-2-methyl-pyridin-3-yl)-2-(pyridin-4-yl)pyrazolo[5,1-b]thiazole-7-carboxamide] | 0.5 |
| Cc1ncc(C(=O)NCCN2CCCC2(C)C)cc1NC(=O)c1cnn2cc(-c3cnn(C)c3)sc12 [Example 8, N-(5-((2-(2,2-dimethylpyrrolidin-1-yl)ethyl)carbamoyl)-2-methylpyridin-3-yl)-2-(1-methyl-1H-pyrazol-4-yl)pyrazolo[5,1-b]thiazole-7-carboxamide] | 0.4 |
| Cc1ncc(C(=O)NCCN2CCCC2(C)C)cc1NC(=O)c1cnn2cc(-c3ccn(C)n3)sc12 [Example 9, N-(5-((2-(2,2-dimethylpyrrolidin-1-yl)ethyl)carbamoyl)-2-methylpyridin-3-yl)-2-(1-methyl-1H-pyrazol-3-yl)pyrazolo[5,1-b]thiazole-7-carboxamide] | 0.3 |
| Cc1ncc(NC(=O)CCN2CCCC2(C)C)cc1NC(=O)c1cnn2cc(-c3cnn(C)c3)sc12 [Example 10, N-(5-(3-(2,2-dimethylpyrrolidin-1-yl)propanamido)-2-methyl-pyridin-3-yl)-2-(1-methyl-1H-pyrazol-4-yl)pyrazolo[5,1-b]thiazole-7-carboxamide] | 0.3 |
| Cc1ncc(NC(=O)CCN2CCCC2(C)C)cc1NC(=O)c1cnn2cc(-c3ccnn3C)sc12 [Example 11, N-(5-(3-(2,2-dimethylpyrrolidin-1-yl)propanamido)-2-methyl-pyridin-3-yl)-2-(1-methyl-1H-pyrazol-5-yl)pyrazolo[5,1-b]thiazole-7-carboxamide] | 0.5 |
| COCCn1cc(-c2cn3ncc(C(=O)Nc4cc(NC(=O)CCN5CCC56CCC6)cnc4C)c3s2)cn1 [Example 95, N-(5-(3-(1-azaspiro[3.3]heptan-1-yl)propanamido)-2-methylpyridin-3-yl)-2-(1-(2-methoxyethyl)-1H-pyrazol-4-yl)pyrazolo[5,1-b]thiazole-7-carboxamide] | 0.4 |
| Cc1ncc(NC(=O)CCN2CC(C)(C)C2)cc1NC(=O)c1cnn2cc(-c3cnn(C)c3)sc12 [Example 96, N-(5-(3-(3,3-dimethylazetidin-1-yl)propanamido)-2-methylpyridin-3-yl)-2-(1-methyl-1H-pyrazol-4-yl)pyrazolo[5,1-b]thiazole-7-carboxamide] | 0.6 |
| Cc1ncc(NC(=O)CCN2CCC3(CC2)CC3)cc1NC(=O)c1cnn2cc(-c3cnn(C)c3)sc12 [Example 97, N-(5-(3-(6-azaspiro[2.5]octan-6-yl)propanamido)-2-methylpyridin-3-yl)-2-(1-methyl-1H-pyrazol-4-yl)pyrazolo[5,1-b]thiazole-7-carboxamide] | 0.4 |
| Cc1ncc(NC(=O)CCN2CCCC23CC3)cc1NC(=O)c1cnn2cc(-c3cnn(C)c3)sc12 [Example 98] | 0.3 |
| COCCn1cc(-c2cn3ncc(C(=O)Nc4cc(NC(=O)CCN5CC6CCC5CC6)cnc4C)c3s2)cn1 [Example 100, N-(5-(3-(2-azabicyclo[2.2.2]octan-2-yl)propanamido)-2-methylpyridin-3-yl)-2-(1-(2-methoxyethyl)-1H-pyrazol-4-yl)pyrazolo[5,1-b]thiazole-7-carboxamide] | 0.5 |
| COCCn1nc(C)c(-c2cn3ncc(C(=O)Nc4cc(NC(=O)CCN5CC6CCC(C5)O6)cnc4C)c3s2)c1C [Example 102, N-(5-(3-(8-oxa-3-azabicyclo[3.2.1]octan-3-yl)propanamido)-2-methylpyridin-3-yl)-2-(1-(2-methoxyethyl)-3,5-dimethyl-1H-pyrazol-4-yl)pyrazolo[5,1-b]thiazole-7-carboxamide] | 1.3 |
| COCCn1nc(C)c(-c2cn3ncc(C(=O)Nc4cc(NC(=O)CCN5CCC6(CC6)C5)cnc4C)c3s2)c1C [Example 103, N-(5-(3-(5-azaspiro[2.4]heptan-5-yl)propanamido)-2-methylpyridin-3-yl)-2-(1-(2-methoxyethyl)-3,5-dimethyl-1H-pyrazol-4-yl)pyrazolo[5,1-b]thiazole-7-carboxamide] | 0.8 |
| Cc1ncc(NC(=O)CCN2CCC3(CC3)C2)cc1NC(=O)c1cnn2cc(-c3cnn(C)c3)sc12 [Example 104, N-(5-(3-(5-azaspiro[2.4]heptan-5-yl)propanamido)-2-methylpyridin-3-yl)-2-(1-methyl-1H-pyrazol-4-yl)pyrazolo[5,1-b]thiazole-7-carboxamide] | 0.4 |
| Cc1ncc(NC(=O)CCCN2CCC[C@@H]2C)cc1NC(=O)c1cnn2cc(-c3cnn(C)c3)sc12 [Example 106, (S)-2-(1-methyl-1H-pyrazol-4-yl)-N-(2-methyl-5-(4-(2-methylpyrrolidin-1-yl)butanamido)pyridin-3-yl)pyrazolo[5,1-b]thiazole-7-carboxamide] | 1.3 |
| Cc1ncc(NC(=O)NCC2CCN(C)CC2)cc1NC(=O)c1cnn2cc(-c3cnn(C)c3)sc12 [Example 107, 2-(1-methyl-1H-pyrazol-4-yl)-N-(2-methyl-5-(3-((1-methylpiperidin-4-yl)methyl)ureido)pyridin-3-yl)pyrazolo[5,1-b]thiazole-7-carboxamide] | 13.2 |
| Cc1ncc(NC(=O)NCCC2CCN(C)CC2)cc1NC(=O)c1cnn2cc(-c3cnn(C)c3)sc12 [Example 108, 2-(1-methyl-1H-pyrazol-4-yl)-N-(2-methyl-5-(3-(2-(1-methylpiperidin-4-yl)ethyl)ureido)pyridin-3-yl)pyrazolo[5,1-b]thiazole-7-carboxamide] | 10.7 |
| Cc1ncc(NC(=O)NCC2CCN(C(C)C)CC2)cc1NC(=O)c1cnn2cc(-c3cnn(C)c3)sc12 [Example 109, N-(5-(3-((1-isopropylpiperidin-4-yl)methyl)ureido)-2-methylpyridin-3-yl)-2-(1-methyl-1H-pyrazol-4-yl)pyrazolo[5,1-b]thiazole-7-carboxamide] | 38.9 |
| Cc1ncc(C(=O)NCCN2CCOCC23CC3)cc1NC(=O)c1cnn2cc(-c3cnn(C)c3)sc12 [Example 110, N-(5-((2-(7-oxa-4-azaspiro[2.5]octan-4-yl)ethyl)carbamoyl)-2-methylpyridin-3-yl)-2-(1-methyl-1H-pyrazol-4-yl)pyrazolo[5,1-b]thiazole-7-carboxamide] | 0.6 |
